Results: ChEMBL document CHEMBL1201862, “PubChem BioAssay data set” (2004)
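Assay format: 96-well plates, 48-hour exposure. At the GI50, growth is halved.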 The source made the active and inactive calls. No stated cut-off is given here; in the data, active = GI50 up to about 1.1 µM and inactive = higher.

Assays:
Experiment in all cases: growth of human tumour cells (NCI), 48 h
U-251 = tested on: U-251
RPMI-8226 = tested on: RPMI-8226
HL-60 = tested on: HL-60
A549 = tested on: A549
SN12C = tested on: SN12C
CAKI-1 = tested on: CAKI-1
SK-MEL-28 = tested on: SK-MEL-28
SW-620 = tested on: SW-620
HCT-116 = tested on: HCT-116
SNB-19 = tested on: SNB-19
SF-295 = tested on: SF-295
CCRF-CEM = tested on: CCRF-CEM
SF-539 = tested on: SF-539
SK-OV-3 = tested on: SK-OV-3
M14 = tested on: M14
HT-29 = tested on: HT-29
IGROV-1 = tested on: IGROV-1
KM12 = tested on: KM12
SF-268 = tested on: SF-268
SR = tested on: SR

Row | Compound | GI50 (U-251) | GI50 (RPMI-8226) | GI50 (HL-60) | GI50 (A549) | GI50 (SN12C) | GI50 (CAKI-1) | GI50 (SK-MEL-28) | GI50 (SW-620) | GI50 (HCT-116) | GI50 (SNB-19) | GI50 (SF-295) | GI50 (CCRF-CEM) | GI50 (SF-539) | GI50 (SK-OV-3) | GI50 (M14) | GI50 (HT-29) | GI50 (IGROV-1) | GI50 (KM12) | GI50 (SF-268) | GI50 (SR)
1 | COc1ccc(C(c2ccc(C(C)C)cc(=O)c2O)c2c(O)cc3oc(-c4ccccc4)cc(=O)c3c2O)cc1 (configuration not stated) | 6.43 µM (inactive) | 6.21 µM (inactive) | 4.4 µM (inactive) | 3.35 µM (inactive) | 16.5 µM (inactive) | 9.04 µM (inactive) | 17.1 µM (inactive) | 14.5 µM (inactive) | 2.81 µM (inactive) | 4.14 µM (inactive) | 4.93 µM (inactive) | 4.04 µM (inactive) | 3.05 µM (inactive) | 12.5 µM (inactive) | 7.26 µM (inactive) | 17.7 µM (inactive) | 3.91 µM (inactive) |  |  | 
2 | CC1NC(=O)C2=C1C(N)=NC(=O)C2 (configuration not stated) | > 100 µM (inactive) | > 100 µM (inactive) |  | > 100 µM (inactive) | > 100 µM (inactive) | > 100 µM (inactive) | > 100 µM (inactive) | > 100 µM (inactive) | > 100 µM (inactive) | > 100 µM (inactive) | > 100 µM (inactive) |  | > 100 µM (inactive) | > 100 µM (inactive) | > 100 µM (inactive) |  | > 100 µM (inactive) | > 100 µM (inactive) | > 100 µM (inactive) | > 100 µM (inactive)
3 | CC/C=C/C[C@H](O[Si](C)(C)C(C)(C)C)[C@H]1C[C@H]2O[C@H]([C@@H](O)C#C[Si](C)(C)C)C[C@H]2O1 | 15.5 µM (inactive) | 12.9 µM (inactive) | 3.84 µM (inactive) | 10.1 µM (inactive) | 5.36 µM (inactive) | 11.3 µM (inactive) | 14.2 µM (inactive) | 16.6 µM (inactive) | 12.1 µM (inactive) | 13.8 µM (inactive) | 14.3 µM (inactive) | 21.5 µM (inactive) |  | 15.5 µM (inactive) | 12.1 µM (inactive) | 11.9 µM (inactive) | 14.3 µM (inactive) | 17.9 µM (inactive) | 13.8 µM (inactive) | 2.31 µM (inactive)
4 | CC1(C)C2CCC1(C)[C@H](O)[C@H]2Nc1cc(C(F)(F)F)cc(C(F)(F)F)c1 (some centres not stated) | 4.15 µM (inactive) | 3.01 µM (inactive) |  | 3.7 µM (inactive) |  | 3.76 µM (inactive) | 1.74 µM (inactive) | 3.36 µM (inactive) | 2.72 µM (inactive) | 4.48 µM (inactive) | 2.37 µM (inactive) |  | 4.66 µM (inactive) | 3.88 µM (inactive) | 4.06 µM (inactive) | 3.32 µM (inactive) | 4.74 µM (inactive) | 2.88 µM (inactive) | 3.14 µM (inactive) | 2.95 µM (inactive)
5 | CSCCC(NC(=O)OCc1ccccc1)NC(=O)OCc1ccccc1 | > 100 µM (inactive) | > 100 µM (inactive) | > 10 µM (inactive) | > 100 µM (inactive) | > 100 µM (inactive) | > 100 µM (inactive) | > 100 µM (inactive) | > 100 µM (inactive) | > 100 µM (inactive) | > 100 µM (inactive) | > 100 µM (inactive) | > 10 µM (inactive) |  | > 100 µM (inactive) | > 100 µM (inactive) | > 100 µM (inactive) | > 100 µM (inactive) |  |  | > 100 µM (inactive)
6 | CC(Cc1ccc2c(c1)OCO2)N(C)C(=O)C1=CCN(C)CC1 (configuration not stated) | > 100 µM (inactive) | > 100 µM (inactive) | > 100 µM (inactive) | > 100 µM (inactive) | > 100 µM (inactive) | > 100 µM (inactive) | > 100 µM (inactive) | > 100 µM (inactive) | > 100 µM (inactive) | > 100 µM (inactive) | > 100 µM (inactive) | > 100 µM (inactive) |  | > 100 µM (inactive) | > 100 µM (inactive) | > 100 µM (inactive) | > 100 µM (inactive) | > 100 µM (inactive) | > 100 µM (inactive) | > 100 µM (inactive)
7 | CCOC(=O)/C=C1\Oc2ccccc2C1(C)O (configuration not stated) | > 100 µM (inactive) | > 100 µM (inactive) | > 100 µM (inactive) | > 100 µM (inactive) | > 100 µM (inactive) | > 100 µM (inactive) | > 100 µM (inactive) | > 100 µM (inactive) | > 100 µM (inactive) | > 100 µM (inactive) | > 100 µM (inactive) | > 100 µM (inactive) |  | > 100 µM (inactive) | > 100 µM (inactive) | > 100 µM (inactive) | > 100 µM (inactive) | > 100 µM (inactive) | > 100 µM (inactive) | > 100 µM (inactive)
8 | CC(=O)C1CC(C)=CCC12C(=O)Nc1ccccc12 (configuration not stated) | > 100 µM (inactive) | > 100 µM (inactive) | > 100 µM (inactive) | > 100 µM (inactive) | > 100 µM (inactive) | > 100 µM (inactive) | > 100 µM (inactive) | > 100 µM (inactive) | > 100 µM (inactive) | > 100 µM (inactive) | > 100 µM (inactive) | > 100 µM (inactive) | > 100 µM (inactive) | > 100 µM (inactive) | > 100 µM (inactive) | > 100 µM (inactive) | > 100 µM (inactive) | > 100 µM (inactive) | > 100 µM (inactive) | 
9 | CC(C)=C[C@@H]1C[C@H](C)[C@H]2CC[C@H](C)[C@H]3C(=O)C(O)=C(C)C(=O)[C@]123 | > 100 µM (inactive) | > 100 µM (inactive) | > 100 µM (inactive) | 57.8 µM (inactive) | > 100 µM (inactive) | > 100 µM (inactive) | > 100 µM (inactive) | > 100 µM (inactive) | 88.5 µM (inactive) | > 100 µM (inactive) | > 100 µM (inactive) | 99.1 µM (inactive) | > 100 µM (inactive) | > 100 µM (inactive) | > 100 µM (inactive) | > 100 µM (inactive) | > 100 µM (inactive) | > 100 µM (inactive) | > 100 µM (inactive) | 
10 | C[C@]12CCC(=O)C=C1CC[C@@H]1C2CC[C@]2(C)NC(=O)C(C#N)CC12 (some centres not stated) | > 100 µM (inactive) | > 100 µM (inactive) | > 100 µM (inactive) | > 100 µM (inactive) |  | > 100 µM (inactive) | > 100 µM (inactive) | > 100 µM (inactive) | > 100 µM (inactive) |  | > 100 µM (inactive) | > 100 µM (inactive) | > 100 µM (inactive) | > 100 µM (inactive) | > 100 µM (inactive) | 30.8 µM (inactive) | > 100 µM (inactive) | > 10 µM (inactive) |  | 
11 | Cc1nc2ccccc2cc1C[N+]12CN3CN(CN(C3)C1)C2 | 12.1 µM (inactive) | 3.4 µM (inactive) |  | 30.8 µM (inactive) | 18 µM (inactive) | 27.5 µM (inactive) | 18.7 µM (inactive) | 5.35 µM (inactive) | 5.21 µM (inactive) | 23.8 µM (inactive) | 22.9 µM (inactive) | 0.962 µM (active) | 14.2 µM (inactive) | 32.7 µM (inactive) | 18.5 µM (inactive) | 15.7 µM (inactive) | 31.4 µM (inactive) | 20.9 µM (inactive) | 22.7 µM (inactive) | 19 µM (inactive)
12 | COc1cc(/C=C\c2cccnc2)cc(OC)c1OC | 33 µM (inactive) | 19.6 µM (inactive) | 18.9 µM (inactive) | 42.1 µM (inactive) | 42.6 µM (inactive) | 44.5 µM (inactive) | 69.3 µM (inactive) | 38.3 µM (inactive) | 58.2 µM (inactive) | 83.9 µM (inactive) | 36.6 µM (inactive) | 25.7 µM (inactive) | 36.6 µM (inactive) |  | 26.8 µM (inactive) | 40.7 µM (inactive) | 57.9 µM (inactive) | 36.1 µM (inactive) | 77.1 µM (inactive) | 
13 | O=C(NCCNCCO)N/N=C/c1cccc([N+](=O)[O-])c1 | > 100 µM (inactive) | > 100 µM (inactive) | > 100 µM (inactive) | > 100 µM (inactive) | > 100 µM (inactive) | > 100 µM (inactive) | > 100 µM (inactive) | > 100 µM (inactive) | > 100 µM (inactive) |  | > 100 µM (inactive) | > 100 µM (inactive) | > 100 µM (inactive) | > 100 µM (inactive) | > 100 µM (inactive) | > 100 µM (inactive) | > 100 µM (inactive) | > 100 µM (inactive) | > 100 µM (inactive) | 
14 | COc1ccc(-c2oc3cc(-c4cc5oc(-c6ccc(OC)cc6)c(-c6ccc(OC)cc6)c5cc4OC)c(OC)cc3c2-c2ccc(OC)cc2)cc1 | > 100 µM (inactive) | > 100 µM (inactive) |  | > 100 µM (inactive) | > 100 µM (inactive) | > 100 µM (inactive) | > 100 µM (inactive) | > 100 µM (inactive) | > 100 µM (inactive) | > 100 µM (inactive) | > 100 µM (inactive) | > 100 µM (inactive) | > 100 µM (inactive) | > 100 µM (inactive) | > 100 µM (inactive) | > 100 µM (inactive) | > 100 µM (inactive) | > 100 µM (inactive) | > 100 µM (inactive) | > 100 µM (inactive)
15 | CCCCCC[N+](C)(C)Cc1ccc(C[N+](C)(C)CCCCCC)cc1 | 2.57 µM (inactive) | 4.23 µM (inactive) | 4.33 µM (inactive) | 3.36 µM (inactive) | 3.49 µM (inactive) | 3.19 µM (inactive) | 4.95 µM (inactive) | 4.84 µM (inactive) | 3.71 µM (inactive) | 5.2 µM (inactive) | 2.79 µM (inactive) | 2.73 µM (inactive) |  | 9.66 µM (inactive) | 3.48 µM (inactive) | 3.8 µM (inactive) | 2.54 µM (inactive) | 2.25 µM (inactive) | 2.79 µM (inactive) | 2.19 µM (inactive)
